In patent publication US20180044422A1, “TREATING SOLID TUMOR BY TARGETING DECTIN-1 SIGNALING” (New York University, priority 2016, published 2018):

Key:
[1] = system: pancreatic oncogenesis in KC mice; experiment: KC mice endogenous pancreatic tumor model; assay type: in vivo, mouse; settings: Dectin-1-/- mice, 20 mg/kg i.p. five times weekly, 8 weeks, vs vehicle
Description: C57BL/6 (H-2Kb) mice were purchased from Jackson Labs (Bar Harbor, Me.) and bred in-house. KC and KPC mice develop pancreatic neoplasia endogenously by expressing mutant Kras alone or mutant Kras and p53, respectively, in the progenitor cells of the pancreas (Hingorani et al., Cancer Cell, 2003, 4, 437-450; Hingorani et al., Cancer Cell, 2005, 7, 469-483). Tumor progression and survival in control KC mice has been previously detailed (Daley et al., Cell, 2016, 166, 1485-1499). Dectin-1^−/− mice were crossed with KC mice to generate KC; Dectin-1^−/− animals. For orthotopic pancreatic tumor challenge, mice were administered intra-pancreatic injections of either Kras^G12D PDEC or FC1242 tumor cells derived from KPC mice. Kras^G12D PDEC and FC1242 cells were generated as previously described (Pylayeva-Gupta et al., Cancer Cell, 2012, 21, 836-847; Zambirinis et al., J Exp Med., 2015, 212, 2077-2094). […] Mice were sacrificed 3 weeks later and tumor weight recorded. […] PDEC proliferation was measured using the XTT assay according to the manufacturer's protocol (Roche, Nutley, N.J.). […]
For histological analysis, pancreatic specimens were fixed with 10% buffered formalin, dehydrated in ethanol, embedded with paraffin, and stained with H&E or Gomori's Trichrome. The fraction of preserved acinar area was calculated as previously described (Seifert et al., Nature, 2016, 532, 245-249). […]

[2] = system: Dectin-1/Galectin-9 interaction; experiment: Galectin-9 immunoprecipitation with PNGase F or lactose treatment; assay type: binding; settings: PNGase F pretreatment of Dectin-1 or 100 mM lactose pre-incubation of Galectin-9; SDS-PAGE
Procedure: Dectin-1 IgG Fc (8 μg; InvivoGen) was treated with PNGase F (20 μl, ˜10,000 units; New England Biolabs) following the company's non-denaturing protocol (37° C., 24 hr). PNGase F treated and untreated Dectin-1 IgG Fc samples (4 μg; InvivoGen) were added to protein G beads (25 μl, Dynabeads Protein G; novex) and the mixtures were incubated at room temperature for 10 min. The beads were washed 2× with PBS-T (pH 7.4 with 0.02% tween). Recombinant mouse Galectin-9 (4 μg; R&D Systems) was resuspended in PBS-T or a solution of 100 mM lactose in PBS-T. Galectin-9 samples were then incubated with the Dynabead/Dectin-1 IgG Fc complex for 20 min at room temperature. The Dynabeads were then washed 3× with PBS-T and transferred to a clean tube. Galectin-9 and Dectin-1 IgG Fc were eluted in SDS-PAGE buffer (PBS with 10% BME) by heating at 98° C. for 10 min. The samples were then analyzed by SDS-PAGE and stained with Coomassie Blue.

[3] = system: bone-marrow derived macrophages (BMDM); experiment: Dectin-1 expression in bone-marrow derived macrophages; assay type: cell-based, mouse; settings: cytokine added to day 8 BMDM cultures for 24h

Row | Compound | Dectin-1 expression in BMDM [3] | also measured
1 | Oc1cc(O)cc(/C=C/c2ccc(O)c(O)c2)c1 [Piceatannol] |  | pancreatic tumor weight [1]: no effect
2 | OC[C@H]1O[C@@H](O[C@H]2[C@H](O)[C@@H](O)C(O)O[C@@H]2CO)[C@H](O)[C@@H](O)[C@H]1O (stereo partly shown) [lactose] |  | effect on Dectin-1/Galectin-9 binding [2]: no alteration of the Dectin-1/Galectin-9 interaction
3 | TGF-3: cytokine added to BMDM cultures; printed TGF-β in methods | did not influence Dectin-1 expression | 
4 | TNF-α | did not influence Dectin-1 expression | 
